Data: patent US20240150839A1, “METHODS FOR PREDICTING RESPONSIVENESS OF PROSTATE CANCER PATIENTS TO PARP INHIBITORS” (Memorial Sloan Kettering Cancer Center, priority 2019, published 2024)

Assays:
Format in all cases: cell-based, human
LNCaP-BRCA2-RB1 cells = assay: MTT cell growth with PARP inhibitors; settings: LNCaP-BRCA2-RB1 vs BRCA2-null LNCaP; olaparib 3 μM, talazoparib 0.005 μM (FIG. 2E)
Experimental: (§1) Scr-CRISPR and BRCA2-CRISPR2 cells were also transfected with non-targeting shRNA (scr-Sh) for control of shRNA. RHoGDI served as the loading control. […] Equivalent volume of DMSO was used as placebo treatment. Cell growth was measured by MTT assay; SD, p-values were determined by Student's t-test. […] FIG. 2C (2nd and 3rd rows) show the immunofluorescence (400× magnification) of F-actin filament stained with phalloidin in indicated CRISPR/shRNA-infected LNCaP cells. Nuclei were stained with DAPI (blue). […] 5×10^3 indicated cells were plated on the top of Boyden chamber (see Example 1) in serum-free media; 10% serum in the bottom chamber was used as chemo-attractant. After 48 hours, cells in the lower side of the chamber were fixed, stained, and photographed (100× magnification). […] Nuclei were stained with DAPI (blue). […] The graphs show cell growth measured by MTT assay (±SD); P-values determined by Student's t-test. […] RNA sequencing was analyzed by Partek.
(§2) To generate BRCA2-RB1 knockout-knockdown LNCaP cells, parental LNCaP cells were first infected with lentivirus containing BRCA2 gRNA or scr gRNA. Pooled population of the stable cells were established by puromycin selection and analyzed by western blot and qPCR. BRCA2-knockout or scr LNCaP cells were infected with lentivirus containing RB1 shRNA followed by hygromycin selection. BRCA2-knockout or scr (gRNA) LNCaP cells also infected with lentiviral non-targeting shRNA (scr-shRNA) were used as control. Cells within 4-10 passages after stable selection were used for the following experiments.
(§3) Cell Proliferation Assay by MTT, BrdU and Crystal Violet. For MTT assay, cells were plated at 2.5×10^3 per well in 96-well plates in complete media (10% FBS) or media supplemented with 10% charcoal-stripped serum. Cells were either treated with DMSO or with indicated inhibitors. After indicated times, cells were incubated in 0.5 mg/mL MTT (Invitrogen) for 1 hour at 37° C. MTT crystals were dissolved in isopropanol and absorbance was measured in a BioTek plate reader at […] and represented graphically.

[1] = test system: RB1 knockdown LNCaP cells; assay: MTT cell growth with PARP inhibitors; settings: RB1 knockdown vs control LNCaP cells; olaparib 3 μM, talazoparib 0.005 μM (FIG. 2E)
Experimental: as §1, §2, §3

MSK-PCa1 organoid = assay: MTT growth of mCRPC organoids with PARPi; settings: compared to benign organoid; 3 days (FIG. 6E)
Description: (§4) Near-diploid benign prostate organoid is used as a control. […] GAPDH served as the loading control. […] The graphs show cell growth measured by MTT assay (±SD); P-trends determined by 2-way ANOVA.
(§5) Cell Culture. Human prostate cancer cells LNCaP, 22RV1, DU145, PC3, and VCaP were obtained from ATCC (Manassas, VA). LNCaP-C42 cells were obtained from VitroMed (Burlington, NC). The LNCaP-Abl cell line, E006AA-T cells, PC3M LAPC4 cell line were obtained. These cells were maintained in 10% FBS (LNCaP, LNCaP-C42, LAPC4, VCaP, 22RV1, DU145, PC3, PC3M, and E006AA) or 10% charcoal-stripped serum (LNCaP-Abl) supplemented with 2 mM of L-glutamine and 1×antibiotic/antimycotic (Gemini Bio-Products, Sacramento, CA) at 37° C. in 5% CO2. Human prostate epithelial cell RWPE1 was obtained from ATCC and cultured in keratinocyte serum-free medium (Thermo Fisher Scientific, Waltham, MA) at 37° C. in 5% CO2. Cells were authenticated by human short tandem repeat profiling at the MSK Integrated Genomics Operation Core. Patient-derived human prostate cancer organoids were cultured as described. Gao et al., Cell 159:176-87 (2014).
as §3

MSK-PCa3 organoid = assay: MTT growth of mCRPC organoids with PARPi; settings: compared to benign organoid; 3 days (FIG. 6E)
Description: as §4, §5, §3

BRCA2-null RWPE1 cells = assay: MTT cell growth with olaparib; settings: BRCA2-null vs control RWPE1; 3 μM and 10 μM olaparib, 7 days (FIG. 3G)
Experimental: Scr-CRISPR and BRCA2-CRISPR2 cells were also transfected with non-targeting shRNA (scr-Sh) for control of shRNA. GAPDH served as the loading control. […] Nuclei were stained with DAPI (blue). […] Control cells were transfected with empty vector. […] GAPDH served as the loading control. […] LNCaP cells were used as control. GAPDH served as the loading control. […] Nuclei were stained with DAPI (blue). […] Equivalent volume of DMSO was used as placebo treatment. Cell growth was measured by MTT assay; SD, P-values determined by Student's t-test. […] LNCaP-BRCA2-RB1 or control cells were incubated in charcoal-stripped medium (CSS) for 24 hours followed by treatment with 1 nM R1881 for another 48 hours (in CSS). […] After 24 hours, cells in the lower side of the chamber were fixed, stained, photographed in 100× magnification (top panel), and counted and represented in the form of the bar graph (bottom panel). P-values were determined by Student's t-test.
(§6) To generate BRCA2 knockout RWPE1 cells, BRCA2 gRNA2 was cloned into LentiCRISPRv2-GFP backbone which constitutively expresses Cas9 and GFP. Lentiviral infected cells were selected by FACS sorting for GFP positive cells (twice) and analyzed by western blot. […] Loss of BRCA2 in the pooled populations of LNCaP cells was analyzed by western blot using BRCA2-specific antibodies and this pooled population of cells was used for the following experiments. […]

BRCA2-null LNCaP cells = assay: MTT cell growth of BRCA2 CRISPR-edited LNCaP cells with PARP inhibitors or cisplatin; settings: BRCA2 knockout LNCaP vs control gRNA (scr) cells; complete medium, 6 days (FIG. 7C)
Experimental: Cells infected with scrambled (scr) gRNA were used as control. Equal amount of proteins was loaded in WedgeWell 6% gel and western blot was performed. ˜400 kDa BRCA2 band is indicated by arrow. GAPDH served as loading controls for western blot and qPCR. […] Genotypes are detected by PCR amplification followed by being treated with T7 endonuclease. Wt and mutant BRCA2 are indicated by red and green arrows, respectively. […] Equivalent volume of DMSO was used as placebo treatment. Cell growth was measured by MTT assay (see Example 1); SD, P-values determined by Student's t-test. *P<0.05, **P<0.01, ***P<0.001. FIGS. 7D-7E show the growth curve (FIG. 7D) and a bar graph (FIG. 7E) representing the cell growth of LNCaP BRCA2 CRISPR-edited and non-targeting control gRNA (scr) infected cells in complete medium supplemented with enzalutamide (ENZ; indicated concentration) for 7 days or charcoal-stripped medium (CSS) for 5 days, respectively. Equivalent volume of DMSO was used as placebo treatment. Cell growth was measured by crystal violet staining assay (see Example 1) (±SD); P-values determined by Student's t-test. […] Equivalent volume of DMSO was used as placebo treatment. Cell growth was measured by MTT assay (see Example 1) (±SD); P-values determined by Student's t-test. […] Total RNA was isolated, and BRCA2 mRNA was analyzed by qPCR. […] Cell growth was measured by MTT assay; SD, P-values determined by Student's t-test.
as §6
Cell Proliferation Assay by MTT, BrdU and Crystal Violet. […] MTT crystals were dissolved in isopropanol and absorbance was measured in a BioTek plate reader at […] and represented graphically.

22RV1 cells = assay: MTT cell growth with PARPi or cisplatin; settings: 22RV1, BRCA2 T3033Nfs*11, RB1-wt; cisplatin 500 nM, talazoparib 5 nM, 6 days (FIG. 11D)
Experimental: as §3, with “The ploidy of each cell line is indicated. […] Equivalent volume of DMSO was used as placebo treatment. Cell growth was measured by MTT assay (see Example 1); SD, each point indicates the MTT count of each well of 96-well plate, P-values determined by Student's t-test. **P<0.01, ****P<0.0001. […] Cell Proliferation” for “Cell Proliferation”

O=C(c1cc(Cc2n[nH]c(=O)c3ccccc23)ccc1F)N1CCN(C(=O)C2CC2)CC1 [olaparib]
cell growth inhibition (MTT) (LNCaP-BRCA2-RB1 cells): more cell growth inhibition
inhibitory effect on cell growth (MTT) [1]: could not be detected
organoid growth (MTT) (MSK-PCa1 organoid): growth reduction
organoid growth (MTT) (MSK-PCa3 organoid): growth reduction
sensitivity (cell growth, MTT) (BRCA2-null RWPE1 cells): enhanced sensitivity

CNCc1ccc(-c2[nH]c3cc(F)cc4c3c2CCNC4=O)cc1 [rucaparib]
sensitivity (cell growth, MTT) (BRCA2-null LNCaP cells): more sensitivity

N.N.[Cl][Pt][Cl] [cisplatin]
sensitivity (cell growth, MTT) (22RV1 cells): sensitivity
sensitivity (cell growth, MTT) (BRCA2-null LNCaP cells): enhanced sensitivity
